Laboratory results taken from patent US12274684B2, “Treatment of vasculopathy with prostacyclin and mesenchymal stem cells” (United Therapeutics Corporation, priority 2013, dated 2025).
Values joined by “and” are separate entries in the source; they are usually repeats but may differ in a detail not shown here. Identical values can stand only once.

Test system: human bone marrow MSC
Assay: Microarray gene expression analysis of MSC (Illumina Human HT12 Expression BeadChip)
Type: cell-based
Settings: Tre(+) 250 μg/mL, 24 h
Method: Human bone marrow MSC were expanded and seeded into six (6) T225 flasks using standard growth medium (Table 1). At 95-99% confluency, cells were thoroughly washed with PBS. Three (3) flasks were replenished with basal media containing 250 μg/mL treprostinil, (+)Tre, and the remaining three (3) flasks were replenished with unsupplemented basal media, (−)Tre. After 24 hours of culture, representative images were captured from (+) Tre and (−) Tre cultures. Conditioned media was collected from each replicate, divided into two samples of appropriate volumes, and analyzed separately for: 1) secreted proteins (Myriad RBM InflammationMAP® 1.0) and 2) exosome RNA content. Cells were lysed directly from culture flasks, processed for total RNA isolation, and analyzed for gene expression by microarray (Illumina Human HT12 Expression BeadChip). Microarray gene expression analysis was also performed on MSC from cultures without (−) or with (+) 250 ug/mL treprostinil. Three (3) biological replicates from each condition were analyzed. Of the 77,612 sequences identified among all replicates, only 24,273 were detected above the arbitrary background of 50 counts. 2,984 RNA sequences were unique to Tre(−) cultures, while 1,781 RNA sequences were unique to Tre(+) cultures (panel A). Genes detected in both conditions were further analyzed for differential expression (panel). […] Genes that are expressed only in Tre(−) cultures (that is to say, completely turned off in the Tre(+) cultures) are shown in Table 5.

## CCCCC[C@H](O)CC[C@@H]1[C@H]2Cc3cccc(OCC(=O)O)c3C[C@H]2C[C@H]1O [treprostinil]
  SLC14A1 (NM_015865) expression, Rep 1-3 (Table 4): 95 counts and 102 counts and 67 counts
  SLC16A6 (NM_004694) expression, Rep 1-3: 975 counts and 1342 counts and 784 counts
  SREBF1 (NM_004176) expression, Rep 1-3: 1709 counts and 1842 counts and 1577 counts
  ST6GALNAC6 (NM_013443) expression, Rep 1-3: 424 counts and 651 counts and 445 counts
  TRH (NM_007117) expression, Rep 1-3: 419 counts and 697 counts and 428 counts
  VEGFA (NM_001025370) expression, Rep 1-3: 4761 counts and 6614 counts and 4293 counts
  VEGFA (NM_001171626) expression, Rep 1-3: 6586 counts and 9874 counts and 6349 counts
Tre(−) AVG 0
  GDNF (NM_199231) expression, AVG: 751 counts
  HAS1 (NM_001523) expression, AVG, second entry: 958 counts
Tre(−) AVG 2
  ST6GALNAC6 (NM_013443) expression, AVG: 506 counts
Tre(−) AVG 4
  ANGPTL4 (NM_139314) expression, AVG: 1759 counts
Tre(−) AVG 10
  ATP6V0D2 (NM_152565) expression, AVG: 646 counts
  SLC16A6 (NM_004694) expression, AVG: 1034 counts
Tre(−) AVG 11
  TRH (NM_007117) expression, AVG: 515 counts
Tre(−) AVG 14
  PDE4B (NM_001037339) expression, AVG: 1196 counts
Tre(−) AVG 16
  NGFR (NM_002507) expression, AVG: 1370 counts
  PDE4D (NM_001197222) expression, AVG: 1677 counts
  SLC4A2 (NM_001199693) expression, AVG: 524 counts
Tre(−) AVG 23
  HAS1 (NM_001523) expression, AVG, first entry: 1728 counts
Tre(−) AVG 26
  ATF3 (NM_001030287) expression, AVG: 1207 counts
Tre(−) AVG 27
  KYNU (NM_003937) expression, AVG: 862 counts
Tre(−) AVG 33
  PDK4 (NM_002612) expression, AVG: 1399 counts
Tre(−) AVG 36
  PDE4D (NM_001197221) expression, AVG: 1124 counts
  STC1 (NM_003155) expression, AVG: 1584 counts
Tre(−) AVG 37
  ATF3 (NM_001674) expression, AVG: 676 counts
Tre(−) AVG 39
  BMP6 (NM_001718) expression, AVG: 1324 counts
Tre(−) AVG 40
  KTN1 (NM_001079522) expression, AVG: 579 counts
  SEC31A (NM_001077207) expression, AVG: 732 counts
Tre(−) AVG 42
  PLOD2 (NM_000935) expression, AVG: 1258 counts
Tre(−) AVG 43
  GDNF (NM_000514) expression, AVG: 786 counts
Tre(−) AVG 46
  PTGS2 (NM_000963) expression, AVG: 10888 counts
Tre(−) AVG 48
  PAQR5 (NM_017705) expression, AVG: 704 counts
Tre(−) AVG 50
  IL11 (NM_000641) expression, AVG: 929 counts
Tre(−) AVG 51
  SCG2 (NM_003469) expression, AVG: 1090 counts
Tre(−) AVG 52
  PITPNC1 (NM_181671) expression, AVG: 824 counts
Tre(−) AVG 53
  IGFBP1 (NM_000596) expression, AVG: 6304 counts
Tre(−) AVG 54
  SLC6A15 (NM_182767) expression, AVG: 1277 counts
Tre(−) AVG 55
  HSD11B1 (NM_005525) expression, AVG: 849 counts
  NR4A2 (NM_006186) expression, AVG: 679 counts
Tre(−) AVG 58
  PTP4A1 (NM_003463) expression, AVG: 685 counts
  SIK1 (NM_173354) expression, AVG: 1183 counts
Tre(−) AVG 63
  IL6 (NM_000600) expression, AVG: 6859 counts
Tre(−) AVG 77
  SMOX (NM_175840) expression, AVG: 955 counts
Tre(−) AVG 78
  PALLD (NM_001166110) expression, AVG: 1033 counts
Tre(−) AVG 85
  DUSP1 (NM_004417) expression, AVG: 1092 counts
Tre(−) AVG 89
  SAT1 (transcript variant 2, non-coding RNA) expression, AVG: 1208 counts
Tre(−) AVG 91
  PRKAG2 (NM_024429) expression, AVG: 7155 counts
Tre(−) AVG 129
  LIPG (NM_006033) expression, AVG: 1702 counts
Tre(−) AVG 132
  IER3 (NM_003897) expression, AVG: 2974 counts
Tre(−) AVG 148
  SREBF1 (NM_004176) expression, AVG: 1709 counts
Tre(−) AVG 155
  IDH1 (NM_005896) expression, AVG: 2039 counts
Tre(−) AVG 176
  C11orf96 (NM_001145033) expression, AVG: 2105 counts
Tre(−) AVG 202
  CD55 (NM_001114752) expression, AVG: 2663 counts
Tre(−) AVG 355
  GPRC5A (NM_003979) expression, AVG: 4684 counts
Tre(−) AVG 359
  CD55 (NM_000574) expression, AVG: 7712 counts
Tre(−) AVG 386
  VEGFA (NM_001025370) expression, AVG: 5223 counts
Tre(−) AVG 421
  GDF15 (NM_004864) expression, AVG: 13505 counts
Tre(−) AVG 504
  TIAM2 (NM_012454) expression, AVG: 20 counts
Tre(−) AVG 511
  KIAA0930 (NM_015264) expression, AVG: 48 counts
Tre(−) AVG 523
  CALD1 (NM_033140) expression, AVG: 0 counts
Tre(−) AVG 526
  MBNL1 (NM_207297) expression, AVG: 46 counts
Tre(−) AVG 538
  NAP1L3 (NM_004538) expression, AVG: 48 counts
